In patent US20250248431A1, “AGENT FOR ENHANCING SALTINESS OR SUPRESSING OFF-FLAVOR” (AJINOMOTO CO., INC., priority 2022, published 2025):

Legend:
[1] = Test 9: sensory evaluation of saltiness intensity, meatballs; format: in vivo; details: effect if average score 1 point or more
Source text: (§1) Meatballs were produced as evaluation samples by the following steps (1) to (6).
(§2) (1) Commercially available ground pork, sodium chloride (manufactured by Naikai Salt Industries Co., Ltd.), and potassium chloride (manufactured by Uji Pharmaceutical Co., Ltd.) were mixed in the ratios shown in Table 25 below, and the mixture was stirred in a stand mixer (“Kitchen Aid”, model: KSM5WH, manufactured by FMI Corporation) until the entire mixture was uniformly mixed. The speed scale of the stand mixer was set to “1”. (2) To the mixture obtained in the above-mentioned (1) were added finely chopped onion, water, salad oil (manufactured by J-OIL MILLS, INC.), potato starch (manufactured by Minami-Tokachi Rationalized Potato Starch Factory), and β-caryophyllene solution or β-caryophyllene oxide solution in the ratios shown in Table 25 below, and the mixture was stirred in the above-mentioned stand mixer (speed scale setting: 1) until the entire mixture was uniformly mixed. The β-caryophyllene solution was prepared by dissolving β-caryophyllene (manufactured by Sigma-Aldrich) in propylene glycol to a concentration of 1000 ppm by weight, and the β-caryophyllene oxide solution was prepared by dissolving β-caryophyllene oxide (manufactured by Penta Manufacturing Company) in propylene glycol to a concentration of 1000 ppm by weight. […]

[2] = Test 9: sensory evaluation of off-taste level, meatballs; format: in vivo; details: effect if average score 1 point or more
Source text: as §1, §2

C=C1CC[C@H]2O[C@]2(C)CC[C@@H]2[C@@H]1CC2(C)C [β-caryophyllene oxide]
saltiness enhancing effect [1]: can enhance the saltiness
off-taste suppression effect [2]: suppress the off-taste of off-taste substances
